Results as given in ChEMBL document CHEMBL1201862, “PubChem BioAssay data set” (2004).
Activity calls are given as the source filed them. Cut-off read from the data, not from the text of the source, for most assays here: actives have a measured EC50 and inactives only a lower limit.

biological target: T1, Corticotropin-releasing factor receptor 2/Corticotropin-releasing factor-binding protein (Homo sapiens, UniProt P24387+Q13324); test: Dose Response confirmation of uHTS hits for small molecule antagonists of the CRF-binding protein and CRF-R2 receptor complex.; type: functional; conditions: read-out: IC50_Mean
T1 sequence (Q13324 whole entry): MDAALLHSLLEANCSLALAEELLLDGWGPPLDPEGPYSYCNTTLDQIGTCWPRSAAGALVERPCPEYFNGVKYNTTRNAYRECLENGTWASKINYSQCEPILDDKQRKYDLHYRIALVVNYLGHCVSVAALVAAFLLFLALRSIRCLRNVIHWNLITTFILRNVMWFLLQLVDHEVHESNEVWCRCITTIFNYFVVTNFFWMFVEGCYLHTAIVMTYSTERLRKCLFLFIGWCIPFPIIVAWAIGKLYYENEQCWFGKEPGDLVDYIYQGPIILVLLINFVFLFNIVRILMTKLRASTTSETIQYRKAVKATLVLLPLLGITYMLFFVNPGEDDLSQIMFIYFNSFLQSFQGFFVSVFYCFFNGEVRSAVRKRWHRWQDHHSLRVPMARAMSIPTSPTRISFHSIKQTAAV
T1 sequence (P24387 whole entry): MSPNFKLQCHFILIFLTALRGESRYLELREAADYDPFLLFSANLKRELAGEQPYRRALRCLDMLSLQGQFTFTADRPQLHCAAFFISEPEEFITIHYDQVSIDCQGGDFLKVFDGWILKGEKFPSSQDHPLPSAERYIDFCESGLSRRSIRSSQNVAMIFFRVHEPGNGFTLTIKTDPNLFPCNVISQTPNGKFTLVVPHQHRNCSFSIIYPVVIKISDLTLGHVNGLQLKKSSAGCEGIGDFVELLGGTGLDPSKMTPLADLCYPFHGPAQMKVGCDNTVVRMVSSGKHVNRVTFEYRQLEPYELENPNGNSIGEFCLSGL

SMILES	IC50
CCCCON1C(=O)c2cccc3cccc(c23)C1=O	> 47.1 µM (inactive)
Cc1cc(S(=O)(=O)Nc2ccc(C(=O)NCC(C)(C)N3CCOCC3)cc2)ccc1F	> 47.1 µM (inactive)
Cc1ccc(S(=O)(=O)N(CC(=O)N=Nc2c(O)[nH]c3ccccc23)c2ccc(C)c(C)c2)cc1	3.25 µM (active)
COc1ccc(CN2CC(=O)N(c3cccc(Cl)c3)C2=S)cc1OC	> 47.1 µM (inactive)
Nc1c(C(=O)N2CCOCC2)sc2nc3c(cc12)CCC3	> 47.1 µM (inactive)
CSC1=NCCN1C(=O)Cc1ccc(Cl)cc1	> 47.1 µM (inactive)
O=C1N=C(N/N=C/c2ccc(F)cc2)SC1c1ccccc1 (stereo not drawn)	> 47.1 µM (inactive)
Cc1nn2c3ccccc3nc2n(C)c1=O	> 47.1 µM (inactive)
O=C(NC1CCCCC1)NS(=O)(=O)c1ccc2c(c1)CCC2 [GLYHEXAMIDE]	> 47.1 µM (inactive)
CC(=O)/N=c1/sc(S(N)(=O)=O)nn1C [METHAZOLAMIDE]	> 47.1 µM (inactive)

test system: not listed separately; test: NIH-3T3 fibroblast cytotoxicity, dose response, cytotoxicity control, cell-based, fluorescence, Alamar Blue, secondary assay (AID 2327); type: functional; conditions: not given;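 note: NIH-3T3 mouse fibroblasts cultured with fluconazole at 8 µg/mL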

SMILES	EC50
CC(C)=CCc1cc2c(=O)c3c(O)c4c(cc3oc2c(O)c1O)OC(C)C4(C)C (stereo not drawn) [GERONTOXANTHONE G]	> 160 µM (inactive)

test system: not listed separately; test: Luminescence Cell-Based Dose Retest to Confirm Inhibitors of Cancer Stem Cells. [Related pubchem assays (depositor defined):AID2717, AID2721]; type: functional; conditions: Homo sapiens

SMILES	AC50
O=C(Nc1ccc(Cl)c(Cl)c1)O/N=C/c1ccncc1	5.98 µM (active)

test system: not listed separately; test: C. albicans growth with fluconazole, confirmation, fluorescence, retest (AID 2467); type: functional, cell-based; conditions: not given

SMILES	EC50
CC(C)=CCc1cc2c(=O)c3c(O)c4c(cc3oc2c(O)c1O)OC(C)C4(C)C (stereo not drawn) [GERONTOXANTHONE G]	> 38 µM (not active)

biological target: T1, Corticotropin-releasing factor receptor 2/Corticotropin-releasing factor-binding protein; test: activators of CRF receptor 2 with binding protein – uHTS hits, confirmation (AID 602473); type: functional; conditions: read-out: EC50_Mean

SMILES	EC50
CCCCON1C(=O)c2cccc3cccc(c23)C1=O	> 53 µM (inactive)
Cc1cc(S(=O)(=O)Nc2ccc(C(=O)NCC(C)(C)N3CCOCC3)cc2)ccc1F	> 53 µM (inactive)
Cc1ccc(S(=O)(=O)N(CC(=O)N=Nc2c(O)[nH]c3ccccc23)c2ccc(C)c(C)c2)cc1	> 53 µM (inactive)
COc1ccc(CN2CC(=O)N(c3cccc(Cl)c3)C2=S)cc1OC	> 53 µM (inactive)
Nc1c(C(=O)N2CCOCC2)sc2nc3c(cc12)CCC3	> 53 µM (inactive)
CSC1=NCCN1C(=O)Cc1ccc(Cl)cc1	> 53 µM (inactive)
O=C1N=C(N/N=C/c2ccc(F)cc2)SC1c1ccccc1 (stereo not drawn)	> 53 µM (inactive)
Cc1nn2c3ccccc3nc2n(C)c1=O	> 53 µM (inactive)
O=C(NC1CCCCC1)NS(=O)(=O)c1ccc2c(c1)CCC2 [GLYHEXAMIDE]	> 53 µM (inactive)
CC(=O)/N=c1/sc(S(N)(=O)=O)nn1C [METHAZOLAMIDE]	> 53 µM (inactive)

biological target: Cytochrome P450 2C9 (Homo sapiens, UniProt P11712); test: not given; conditions: not given
Sequence (P11712 whole entry): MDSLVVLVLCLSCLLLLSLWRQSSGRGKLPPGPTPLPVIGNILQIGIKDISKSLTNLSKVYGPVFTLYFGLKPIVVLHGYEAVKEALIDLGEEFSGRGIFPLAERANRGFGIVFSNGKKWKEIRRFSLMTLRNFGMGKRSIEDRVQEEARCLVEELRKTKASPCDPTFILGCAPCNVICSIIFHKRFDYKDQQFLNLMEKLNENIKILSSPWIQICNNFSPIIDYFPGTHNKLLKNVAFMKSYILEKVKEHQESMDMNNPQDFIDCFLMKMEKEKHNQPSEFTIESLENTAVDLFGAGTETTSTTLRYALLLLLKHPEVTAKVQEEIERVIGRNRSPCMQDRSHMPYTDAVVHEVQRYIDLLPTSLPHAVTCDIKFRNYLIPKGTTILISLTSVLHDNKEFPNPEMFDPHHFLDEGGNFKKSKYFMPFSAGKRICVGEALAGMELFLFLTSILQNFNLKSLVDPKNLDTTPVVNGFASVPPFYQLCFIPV

SMILES	AC50
CC(=O)/N=c1/sc(S(N)(=O)=O)nn1C [METHAZOLAMIDE]	12.6 µM (inconclusive)

test system: not listed separately; test: HEp-2 cell cytotoxicity, dose response, cytotoxicity control for RSV inhibitor project, HTS (AID 2410); type: functional; conditions: human respiratory syncytial virus

SMILES	CC50
COCCNC(=O)CSC1=N/C(=C/c2ccc(Cl)c(Cl)c2)C(=O)N1c1ccccc1F	47.8 µM (active)

biological target: T2, Heat shock factor protein 1 (Mus musculus, UniProt P38532); test: inhibition of MG132-induced HSE-luciferase signal, confirmation, cell-based, NIH3T3, luminescence, dose retest (AID 2382); type: functional; conditions: not given;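 note: NIH3T3 fibroblasts with HSF1-driven luciferase reporter stressed by proteasome inhibitor MG132; luminescence from HSF1-driven luciferase expression after 8 hours of MG132 stress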
T2 sequence (P38532 whole entry): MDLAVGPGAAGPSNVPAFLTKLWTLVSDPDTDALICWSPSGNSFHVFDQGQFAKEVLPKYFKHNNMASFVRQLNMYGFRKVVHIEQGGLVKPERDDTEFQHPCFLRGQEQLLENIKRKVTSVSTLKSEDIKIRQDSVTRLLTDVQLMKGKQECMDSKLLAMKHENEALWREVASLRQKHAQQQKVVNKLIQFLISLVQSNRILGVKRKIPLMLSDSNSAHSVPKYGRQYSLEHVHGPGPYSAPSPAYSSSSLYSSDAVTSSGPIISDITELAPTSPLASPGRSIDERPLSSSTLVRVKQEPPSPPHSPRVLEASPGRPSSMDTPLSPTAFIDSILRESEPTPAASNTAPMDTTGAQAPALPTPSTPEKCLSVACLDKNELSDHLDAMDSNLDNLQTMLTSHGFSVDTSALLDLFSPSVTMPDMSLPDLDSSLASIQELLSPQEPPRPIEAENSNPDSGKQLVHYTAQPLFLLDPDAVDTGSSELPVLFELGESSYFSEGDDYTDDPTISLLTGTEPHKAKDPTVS

SMILES	EC50
COCCNC(=O)CSC1=N/C(=C/c2ccc(Cl)c(Cl)c2)C(=O)N1c1ccccc1F	20 µM (active)
Cc1cc(S(=O)(=O)Nc2ccc(C(=O)NCC(C)(C)N3CCOCC3)cc2)ccc1F	> 195 µM (not active)

test system: not listed separately; test: inhibitors of intracellular T. cruzi replication, confirmation, NIH3T3 host cells, beta-gal luminescence (AID 2044); type: functional, cell-based; conditions: not given;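 note: intracellular parasites grown in NIH/3T3 mouse fibroblasts as host cells; luminescent beta-galactosidase reporter signal from transgenic T. cruzi replicating inside host cells; inhibitors lower the luminescence signal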

SMILES	EC50
COc1ccc(-[n+]2c(-c3ccc(Br)cc3)cn3c2CCCCC3)cc1	0.552 µM (active)
CC(C)N(Cc1nc(-c2ccc(Cl)cc2)no1)C(=O)CN(C)S(=O)(=O)c1ccc(Cl)cc1	2.71 µM (active)
CC(C)=CCc1cc2c(=O)c3c(O)c4c(cc3oc2c(O)c1O)OC(C)C4(C)C (stereo not drawn) [GERONTOXANTHONE G]	2.64 µM (active)

biological target: T2, Heat shock factor protein 1; test: HSF1 potentiators in luciferase reporter cells, confirmation, cell-based, NIH3T3, luminescence, dose retest (AID 435004); type: functional; conditions: not given;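 note: stress induced by proteasome inhibitor MG132 added 30 min after compound; luciferase reporter driven by HSF1 response element in NIH3T3 cells; actives raise luminescence as potentiators of the MG132 stress response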

SMILES	EC50
COc1ccc(/C=C/C(=O)NCCCc2ccccc2)cc1	> 260 µM (inactive)
O=c1c(-c2ccc3c(c2)OCCO3)coc2cc(O)cc(O)c12	19.2 µM (active)
O=c1[nH]c2ccccc2n1CCC1CCCCC1	> 260 µM (inactive)
Cc1cc(N(C)C)c(C#N)c(NCc2ccccc2)n1	> 260 µM (inactive)
Cc1cc(Cl)ccc1C(=O)C1CCCN(C(=O)c2cnsn2)C1 (stereo not drawn)	> 260 µM (inactive)
CC(C)N(Cc1nc(-c2ccc(Cl)cc2)no1)C(=O)CN(C)S(=O)(=O)c1ccc(Cl)cc1	> 260 µM (inactive)
C=CCn1c(SCC(=O)NC2CCCC2)nc2scc(-c3ccco3)c2c1=O	> 260 µM (inactive)
Cc1nc2ccc(Br)cc2c(=O)n1Cc1cccs1	> 260 µM (inactive)
Cc1nc2scc(-c3ccc(Cl)cc3)c2c(=O)n1N	> 260 µM (inactive)
Cc1cccc(N=C(S)N(CCN(C)C)C(C)c2cccnc2)c1 (stereo not drawn)	> 260 µM (inactive)
CO/C(O)=C1\C(C)=NC(=S)NC1c1ccc(-c2cccc(Cl)c2)o1 (stereo not drawn)	> 260 µM (inactive)

test system: Streptococcus sp. 'group A'; test: growth inhibition of control SK(-) GAS strain, dose response, counter-screen for streptokinase expression inhibitor project, luminescence, kanamycin, BacTiterGlo, confirmation (AID 1900); type: functional, organism-based; conditions: not given

SMILES	EC50
O=C(Nc1ccc(Cl)c(Cl)c1)O/N=C/c1ccncc1	1.75 µM (active)

biological target: T3, Streptokinase A (Streptococcus pyogenes serotype M1, UniProt P10520); test: S. pyogenes streptokinase expression inhibitors, potency, dose response, plasminogen activation absorbance, OD405 (AID 1914); type: functional, Streptococcus pyogenes M1 GAS; conditions: not given;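 note: secreted streptokinase activity via plasminogen activation per viability signal from cell pellet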
T3 sequence (P10520 whole entry): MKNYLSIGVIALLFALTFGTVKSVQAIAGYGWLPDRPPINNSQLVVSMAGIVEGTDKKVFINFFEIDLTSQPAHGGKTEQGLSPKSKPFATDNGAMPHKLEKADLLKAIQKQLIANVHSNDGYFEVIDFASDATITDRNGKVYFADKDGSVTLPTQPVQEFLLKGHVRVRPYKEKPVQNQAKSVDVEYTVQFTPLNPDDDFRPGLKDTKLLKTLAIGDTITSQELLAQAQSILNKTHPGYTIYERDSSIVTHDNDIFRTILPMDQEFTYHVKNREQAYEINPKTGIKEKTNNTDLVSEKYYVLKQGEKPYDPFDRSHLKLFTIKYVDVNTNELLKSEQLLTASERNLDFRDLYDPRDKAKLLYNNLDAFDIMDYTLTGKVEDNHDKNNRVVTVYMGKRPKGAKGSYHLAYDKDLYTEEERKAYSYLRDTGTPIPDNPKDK

SMILES	EC50
O=C(Nc1ccc(Cl)c(Cl)c1)O/N=C/c1ccncc1	> 150 µM (not active)

test system: INS1; test: beta cell apoptosis inhibitors, cytokine rescue, dose response, luminescence, retest (AID 449756); type: functional, cell-based; conditions: Rattus norvegicus;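 note: cell death triggered by IL-1 beta plus TNF-alpha plus IFN-gamma mixture; protective hits raise ATP signal compared with cytokine alone wells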

SMILES	AC50
COCCNC(=O)CSC1=N/C(=C/c2ccc(Cl)c(Cl)c2)C(=O)N1c1ccccc1F	8.64 µM (active)
COc1ccc(-[n+]2c(-c3ccc(Br)cc3)cn3c2CCCCC3)cc1	1.15 µM (active)
Cc1ccc(C)c(N2CCN(C(=O)CCCOc3cc(=O)n(C)c4ccccc34)CC2)c1	2.78 µM (active)
CCCC12C(=O)C(C)(C(c3ccccc3)=C1c1ccccc1)C1C(=O)N(c3ccc(C)cc3)C(=O)C12 (stereo not drawn)	4.16 µM (active)
CC(C)=CCc1cc2c(=O)c3c(O)c4c(cc3oc2c(O)c1O)OC(C)C4(C)C (stereo not drawn) [GERONTOXANTHONE G]	5.18 µM (active)

test system: Streptococcus; test: Group A Streptococcus viability loss, dose response, counter-screen for streptokinase expression inhibitor project, luminescence, BacTiterGlo (AID 1915); type: functional, organism-based; conditions: not given;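 note: potency for reduction of bacterial viability or growth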

SMILES	EC50
O=C(Nc1ccc(Cl)c(Cl)c1)O/N=C/c1ccncc1	36.5 µM (active)

test system: not listed separately; test: cells; type: functional; conditions: not given

SMILES	IC50
O=C(Nc1ccc(Cl)c(Cl)c1)O/N=C/c1ccncc1	9.54 µM (active)

test system: not listed separately; test: cytotoxicity toward NIH3T3 fibroblasts, dose response, counter-screen, cell-based, ATP luminescence, mouse fibroblasts (AID 2010); type: functional; conditions: not given;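 note: cells exposed to compound for about 90 hours before reading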

SMILES	EC50
COc1ccc(-[n+]2c(-c3ccc(Br)cc3)cn3c2CCCCC3)cc1	> 60 µM (not active)
CC(C)N(Cc1nc(-c2ccc(Cl)cc2)no1)C(=O)CN(C)S(=O)(=O)c1ccc(Cl)cc1	> 60 µM (not active)
CC(C)=CCc1cc2c(=O)c3c(O)c4c(cc3oc2c(O)c1O)OC(C)C4(C)C (stereo not drawn) [GERONTOXANTHONE G]	6.31 µM (active)
